Source: ChEMBL document CHEMBL4622979, “Non-rigid Diarylmethyl Analogs of Baloxavir as Cap-Dependent Endonuclease Inhibitors of Influenza Viruses” (J Med Chem, 2020)

How the values were obtained:
[1] = Tmax in CD1 mouse blood assessed as (12aR)-12-(Diphenylmethyl)-7-hydroxy-3,4,12,12a-tetrahydro-1H-[1,4]oxazino[3,4-c]pyrido[2,1-f ][1,2,4]triazine-6,8-dione level at 15 mg/kg, po administered as single dose measured up to 24 hrs by LC-MS/MS analysis; type: ADME, organism-based; conditions: in vivo
[2] = AUClast in CD1 mouse lung assessed as (12aR)-12-(Diphenylmethyl)-7-hydroxy-3,4,12,12a-tetrahydro-1H-[1,4]oxazino[3,4-c]pyrido[2,1-f ][1,2,4]triazine-6,8-dione level at 15 mg/kg, po administered as single dose measured up to 24 hrs by LC-MS/MS analysis; type: ADME, organism-based; conditions: in vivo
[3] = AUCinfinity in CD1 mouse lung assessed as (12aR)-12-(Diphenylmethyl)-7-hydroxy-3,4,12,12a-tetrahydro-1H-[1,4]oxazino[3,4-c]pyrido[2,1-f ][1,2,4]triazine-6,8-dione level at 15 mg/kg, po administered as single dose measured up to 24 hrs by LC-MS/MS analysis; type: ADME, organism-based; parameters: dose 15 mg/kg, route oral, time infinity; conditions: in vivo
[4] = Ratio of AUClast in CD1 mouse trachea to plasma assessed as (12aR)-12-(Diphenylmethyl)-7-hydroxy-3,4,12,12a-tetrahydro-1H-[1,4]oxazino[3,4-c]pyrido[2,1-f ][1,2,4]triazine-6,8-dione level at 15 mg/kg, po administered as single dose measured up to 24 hrs by LC-MS/MS analysis; type: ADME, organism-based; conditions: in vivo
[5] = Ratio of AUClast in CD1 mouse small intestine to plasma assessed as (12aR)-12-(Diphenylmethyl)-7-hydroxy-3,4,12,12a-tetrahydro-1H-[1,4]oxazino[3,4-c]pyrido[2,1-f ][1,2,4]triazine-6,8-dione level at 15 mg/kg, po administered as single dose measured up to 24 hrs by LC-MS/MS analysis; type: ADME, organism-based; conditions: other tissue
[6] = Tmax in CD1 mouse brain assessed as (12aR)-12-(Diphenylmethyl)-7-hydroxy-3,4,12,12a-tetrahydro-1H-[1,4]oxazino[3,4-c]pyrido[2,1-f ][1,2,4]triazine-6,8-dione level at 15 mg/kg, po administered as single dose measured up to 24 hrs by LC-MS/MS analysis; type: ADME, organism-based; conditions: in vivo
[7] = AUCinfinity in CD1 mouse brain assessed as (12aR)-12-(Diphenylmethyl)-7-hydroxy-3,4,12,12a-tetrahydro-1H-[1,4]oxazino[3,4-c]pyrido[2,1-f ][1,2,4]triazine-6,8-dione level at 15 mg/kg, po administered as single dose measured up to 24 hrs by LC-MS/MS analysis; type: ADME, organism-based; parameters: dose 15 mg/kg, time infinity, route oral; conditions: in vivo
[8] = Tmax in CD1 mouse spleen assessed as (12aR)-12-(Diphenylmethyl)-7-hydroxy-3,4,12,12a-tetrahydro-1H-[1,4]oxazino[3,4-c]pyrido[2,1-f ][1,2,4]triazine-6,8-dione level at 15 mg/kg, po administered as single dose measured up to 24 hrs by LC-MS/MS analysis; type: ADME, organism-based; conditions: in vivo
[9] = Cmax in CD1 mouse muscle assessed as (12aR)-12-(Diphenylmethyl)-7-hydroxy-3,4,12,12a-tetrahydro-1H-[1,4]oxazino[3,4-c]pyrido[2,1-f ][1,2,4]triazine-6,8-dione level at 15 mg/kg, po administered as single dose measured up to 24 hrs by LC-MS/MS analysis; type: ADME, organism-based, Muscle tissue; parameters: dose 15 mg/kg, route oral; conditions: in vivo
[10] = Stability in human plasma assessed as parent compound remaining at 1 uM measured after 4 hrs by LC-MS/MS analysis; type: ADME, cell-free; conditions: read-out: Stability
[11] = Ratio of free drug level in CD1 mouse blood assessed as (12aR)-12-(Diphenylmethyl)-7-hydroxy-3,4,12,12a-tetrahydro-1H-[1,4]oxazino[3,4-c]pyrido[2,1-f ][1,2,4]triazine-6,8-dione level at 20 mg/kg, po to EC50 for antiviral activity against Influenza A/California/04/2009 (H1N1)pdm09 infected in MDCK cells; type: ADME, organism-based; conditions: in vivo
[12] = AUClast in CD1 mouse plasma assessed as baloxavir acid level at 15 mg/kg, po administered as single dose by LC-MS/MS analysis; type: ADME, organism-based; parameters: dose 15 mg/kg, route oral, time 0 - last; conditions: in vivo
[13] = Elimination rate constant in CD1 mouse plasma assessed as baloxavir acid level at 15 mg/kg, po administered as single dose measured up to 24 hrs by LC-MS/MS analysis; type: ADME, organism-based; conditions: in vivo
[14] = AUCinfinity in CD1 mouse blood assessed as baloxavir acid level at 15 mg/kg, po administered as single dose measured up to 24 hrs by LC-MS/MS analysis; type: ADME, organism-based; parameters: dose 15 mg/kg, time infinity, route oral; conditions: in vivo
[15] = AUClast in CD1 mouse kidney assessed as baloxavir acid level at 15 mg/kg, po administered as single dose measured up to 24 hrs by LC-MS/MS analysis; type: ADME, organism-based; conditions: in vivo
[16] = Half life in CD1 mouse heart assessed as baloxavir acid level at 15 mg/kg, po administered as single dose measured up to 24 hrs by LC-MS/MS analysis; type: ADME, organism-based; conditions: in vivo
[17] = Cmax in CD1 mouse heart assessed as baloxavir acid level at 15 mg/kg, po administered as single dose measured up to 24 hrs by LC-MS/MS analysis; type: ADME, organism-based; parameters: dose 15 mg/kg, route oral; conditions: in vivo
[18] = AUClast in CD1 mouse lung assessed as baloxavir acid level at 15 mg/kg, po administered as single dose measured up to 24 hrs by LC-MS/MS analysis; type: ADME, organism-based; conditions: in vivo
[19] = Cmax in CD1 mouse trachea assessed as baloxavir acid level at 15 mg/kg, po administered as single dose measured after 4 hrs by LC-MS/MS analysis; type: ADME, organism-based; parameters: dose 15 mg/kg, route oral; conditions: in vivo
[20] = Half life in CD1 mouse small intestine assessed as baloxavir acid level at 15 mg/kg, po administered as single dose measured up to 24 hrs by LC-MS/MS analysis; type: ADME, organism-based; conditions: in vivo
[21] = AUCinfinity in CD1 mouse small intestine assessed as baloxavir acid level at 15 mg/kg, po administered as single dose measured up to 24 hrs by LC-MS/MS analysis; type: ADME, organism-based; parameters: dose 15 mg/kg, route oral, time infinity; conditions: in vivo
[22] = Cmax in CD1 mouse brain assessed as baloxavir acid level at 15 mg/kg, po administered as single dose measured up to 24 hrs by LC-MS/MS analysis; type: ADME, organism-based; parameters: dose 15 mg/kg, route oral; conditions: in vivo

`COC(=O)OCOc1c2n(ccc1=O)N(C(c1ccccc1)c1ccccc1)[C@@H]1COCCN1C2=O` gave a Tmax [1] of 30 min, an AUClast [2] of 8320 ng·h/g and an AUC [3] of 8547 ng·h/g. The “Ratio AUC” value [4] was 3.22, the “Ratio AUC” value [5] was 13.3 and the Tmax [6] was 30 min. For the same compound, the AUC [7] was 1238 ng·h/g, the Tmax [8] was 30 min and the Cmax [9] was 2005 ng/g. For the same compound, the remaining at 4 h, 1 µM [10] was 8.1% and the Ratio [11] was 18.

For `COC(=O)OCOc1c2n(ccc1=O)N([C@@H]1c3ccccc3SCc3c1ccc(F)c3F)[C@@H]1COCCN1C2=O` [BALOXAVIR MARBOXIL], the AUClast [12] was 715 ng·h/mL, the Kel [13] was 0.18 h⁻¹ and the AUC [14] was 1390 ng·h/g. The AUClast [15] was 21162 ng·h/g, the t1/2 [16] was 204 min and the Cmax [17] was 1188 ng/g. For the same compound, the AUClast [18] was 8959 ng·h/g, the Cmax [19] was 277 ng/g and the t1/2 [20] was 188 min. The AUC [21] was 106028 ng·h/g and the Cmax [22] was 21.9 ng/g.
